From patent publication US11452731B2, “Method of treating and preventing loss of cognition” (ENDORECHERCHE, INC., priority 2009, dated 2022)

Key:
[1] = 6 months; cited from earlier work
[2] = Uterine and vaginal weight in ovariectomized BALB/c mice treated orally for 9 days with or without estrone (Example 3); format: in vivo; details: for inhibition of estrone-stimulated uterine weight / inhibition of vaginal weight (estrone-stimulated): OVX mice + estrone, oral 9 days
Procedure, shortened: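 OVX BALB/c mice (18-20 g) were dosed orally by gavage once daily for 9 days from day 2 post-OVX, with or without estrone s.c. twice daily from day 5 for 6 days. The vehicle was 4% ethanol in 0.4% methylcellulose. Uterine and vaginal weights were taken on the 11th morning after OVX.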

[3] = 26-week treatment of ovariectomized rats: lumbar spine BMD, total body fat, serum cholesterol, ALP (Example 4, experiment 2); format: in vivo, rat; details: OVX rats, 26 weeks
Description: Ten to twelve week-old female Sprague-Dawley rats (Crl:CD(SD)Br) (Charles River Laboratory, St-Constant, Canada) weighing approximately 220-270 g at start of treatment were used. […] The animals were housed individually and were allowed free access to tap water and a pelleted certified rodent feed (Lab Diet 5002, Ralston Purina, St-Louis, Mo.). Experiments were conducted in an animal facility approved by the Canadian Council on Animal Care (CCAC) and the Association for Assessment and Accreditation of Laboratory Animal Care (AAALAC) in accordance with the CCAC Guide for Care and Use of Experimental Animals. […] Treatments were initiated on day 2 of the study and were performed once daily during 26 weeks. In both experiments, animals not receiving a test article were treated with the appropriate vehicle alone during the same period. […] QDR 4500A, Hologic, Waltham, Mass.) and a Regional High Resolution Scan software. […] Samples were processed for serum preparation and frozen at -80° C. until assay. Serum cholesterol levels and alkaline phospatase activity (ALP) were determined using the Boehringer Mannheim Diagnostic Hitachi 911 Analyzer (Boehringer Mannheim Diagnostic Laboratory Systems).

[4] = OVX mice, absence of estrone, 10 μg daily (no-effect statements: 1 μg and 10 μg)
[5] = Premarin 0.25 mg/kg, SERMs 2.5 mg/kg

## C[C@]12CC[C@H](O)CC1=CC[C@@H]1[C@@H]2CC[C@]2(C)C(=O)CC[C@@H]12 [DHEA, dehydroepiandrosterone]
[1]
  decrease of total body fat mass: 1.4 kg
  increase of fat-free mass: 0.9 kg

## CC1=C(c2ccc(O)cc2)[C@H](c2ccc(OCCN3CCCCC3)cc2)Oc2cc(O)ccc21.Cl [EM-652.HCl, (S)-(+)-7-hydroxy-3-(4′-hydroxyphenyl)-4-methyl-2-(4″-(2′″-piperidinoethoxy)phenyl)-2H-1-benzopyran hydrochloride]
[2]; 1 μg daily
  inhibition of estrone-stimulated uterine weight: 24%
  inhibition of vaginal weight (estrone-stimulated): 10%
[2]; 3 μg daily
  inhibition of estrone-stimulated uterine weight: 48%
  inhibition of vaginal weight (estrone-stimulated): 25%
[2]; 10 μg daily
  inhibition of estrone-stimulated uterine weight: 72%
  inhibition of vaginal weight (estrone-stimulated): 53%
[2]; [4]
  stimulation of uterine weight (estrogenic effect): no significant stimulatory effect
  stimulation of vaginal weight (estrogenic effect): no significant stimulatory effect
[3]
  ALP: 78 ± 4 IU
  CHOLESTEROL (serum): 0.98 ± 0.06 mmol/L
  TOTAL FAT: 27.7 ± 1.4 %
  reversal of the fat increase induced by estrogen deficiency: 78%
[3]; [5]
  LUMBAR SPINE BMD: 0.2311 ± 0.0040 g/cm^2
  LUMBAR SPINE Prevention of Bone Loss: 62%
